Key:
[1] = target: T1, Metabotropic glutamate receptor 4 (Homo sapiens, UniProt Q14833); experiment: Positive allosteric modulation of human mGluR4 expressed in CHO-K1 cells assessed as decrease in forskolin-induced intracellular cAMP accumulation after 1 hr by fluorescence assay; type: functional, cell-based
[2] = target: T1, Metabotropic glutamate receptor 4; experiment: Positive allosteric modulation of human mGluR4 expressed in CHO-K1 cells assessed as decrease in forskolin-induced intracellular cAMP accumulation after 1 hr by fluorescence assay relative to (-)-PHCC; type: functional, cell-based
[3] = Drug level in rat brain at 30 mg/kg, po measured at 30 mins post dose; type: ADME, organism-based; parameters: dose 30 mg/kg, route oral; conditions: read-out: Drug uptake
[4] = Ratio of drug level in brain to plasma in rat at 30 mg/kg, po measured at 30 mins post dose; type: ADME, organism-based; parameters: dose 30 mg/kg, route oral; conditions: read-out: BPR
[5] = target: T1, Metabotropic glutamate receptor 4; experiment: Agonist activity at human mGluR4 expressed in CHO-K1 cells; type: functional, cell-based
[6] = target: T2, Metabotropic glutamate receptor 5 (Homo sapiens, UniProt P41594); experiment: Negative allosteric modulation of human mGluR5 expressed in CHO-K1 cells; type: cell-based
T2 sequence (P41594 whole entry): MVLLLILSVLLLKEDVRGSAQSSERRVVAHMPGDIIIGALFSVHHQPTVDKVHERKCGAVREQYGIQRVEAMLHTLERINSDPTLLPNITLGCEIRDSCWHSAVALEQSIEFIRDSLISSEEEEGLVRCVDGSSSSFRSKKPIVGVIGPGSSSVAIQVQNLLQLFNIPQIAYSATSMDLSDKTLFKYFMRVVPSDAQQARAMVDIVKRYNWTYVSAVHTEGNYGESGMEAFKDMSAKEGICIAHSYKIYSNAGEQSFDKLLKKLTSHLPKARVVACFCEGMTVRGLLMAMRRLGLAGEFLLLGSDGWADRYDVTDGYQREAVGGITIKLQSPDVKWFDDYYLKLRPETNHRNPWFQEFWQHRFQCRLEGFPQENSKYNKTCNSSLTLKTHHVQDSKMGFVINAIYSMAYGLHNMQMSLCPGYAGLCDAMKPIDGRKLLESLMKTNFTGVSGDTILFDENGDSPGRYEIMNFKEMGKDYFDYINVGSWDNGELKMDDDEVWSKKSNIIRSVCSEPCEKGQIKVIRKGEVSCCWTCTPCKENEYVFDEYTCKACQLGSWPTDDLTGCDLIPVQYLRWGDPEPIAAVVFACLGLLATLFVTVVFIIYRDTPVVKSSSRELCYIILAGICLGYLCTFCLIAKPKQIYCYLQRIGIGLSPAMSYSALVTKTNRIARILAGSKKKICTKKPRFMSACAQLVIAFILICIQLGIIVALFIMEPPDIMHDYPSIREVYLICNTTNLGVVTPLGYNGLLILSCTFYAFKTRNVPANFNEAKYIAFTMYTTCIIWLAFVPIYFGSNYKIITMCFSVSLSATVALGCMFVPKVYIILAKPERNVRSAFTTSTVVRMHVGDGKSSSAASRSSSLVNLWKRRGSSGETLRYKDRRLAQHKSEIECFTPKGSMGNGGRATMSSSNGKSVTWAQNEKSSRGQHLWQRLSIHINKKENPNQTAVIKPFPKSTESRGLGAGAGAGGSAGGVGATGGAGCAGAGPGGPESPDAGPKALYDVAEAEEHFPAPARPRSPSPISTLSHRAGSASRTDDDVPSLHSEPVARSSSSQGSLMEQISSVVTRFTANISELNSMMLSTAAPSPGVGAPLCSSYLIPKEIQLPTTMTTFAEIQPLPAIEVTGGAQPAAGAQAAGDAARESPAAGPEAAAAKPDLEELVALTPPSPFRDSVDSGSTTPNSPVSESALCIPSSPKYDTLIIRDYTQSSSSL

[7] = target: T2, Metabotropic glutamate receptor 5; experiment: Positive allosteric modulation of human mGluR5 expressed in CHO-K1 cells; type: cell-based
[8] = target: T2, Metabotropic glutamate receptor 5; experiment: Agonist activity at human mGluR5 expressed in CHO-K1 cells in absence of glutamate; type: functional, cell-based
[9] = target: Metabotropic glutamate receptor 4 (Rattus norvegicus, UniProt P31423); experiment: Positive allosteric modulation of rat mGluR4 expressed in CHO-K1 cells; type: cell-based
Chain of Metabotropic glutamate receptor 4 (Rattus norvegicus, UniProt P31423) (P31423 whole entry): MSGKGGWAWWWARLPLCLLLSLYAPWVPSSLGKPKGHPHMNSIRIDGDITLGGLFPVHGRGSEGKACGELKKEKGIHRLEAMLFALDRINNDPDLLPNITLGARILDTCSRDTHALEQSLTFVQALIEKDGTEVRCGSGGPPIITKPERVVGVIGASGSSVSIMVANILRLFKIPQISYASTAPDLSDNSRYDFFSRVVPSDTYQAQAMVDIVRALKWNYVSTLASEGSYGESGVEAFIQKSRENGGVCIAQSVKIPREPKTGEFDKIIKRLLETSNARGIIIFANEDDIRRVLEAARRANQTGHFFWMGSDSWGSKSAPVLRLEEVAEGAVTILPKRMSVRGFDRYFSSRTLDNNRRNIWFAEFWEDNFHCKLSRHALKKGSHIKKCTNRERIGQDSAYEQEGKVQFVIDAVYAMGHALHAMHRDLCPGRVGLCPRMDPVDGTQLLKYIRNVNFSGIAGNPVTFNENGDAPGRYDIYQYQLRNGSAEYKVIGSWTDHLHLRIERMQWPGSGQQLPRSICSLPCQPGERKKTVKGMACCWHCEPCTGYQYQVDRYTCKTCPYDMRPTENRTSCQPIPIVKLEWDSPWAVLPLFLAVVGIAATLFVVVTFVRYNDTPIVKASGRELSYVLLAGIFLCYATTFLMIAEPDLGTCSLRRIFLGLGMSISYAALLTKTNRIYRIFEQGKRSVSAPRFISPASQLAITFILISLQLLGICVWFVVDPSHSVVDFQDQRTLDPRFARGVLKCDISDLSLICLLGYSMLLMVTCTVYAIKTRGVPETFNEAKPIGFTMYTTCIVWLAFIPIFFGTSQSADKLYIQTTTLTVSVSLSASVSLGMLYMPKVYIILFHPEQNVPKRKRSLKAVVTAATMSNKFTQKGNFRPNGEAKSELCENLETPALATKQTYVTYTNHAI

[10] = target: Metabotropic glutamate receptor 5 (Rattus norvegicus, UniProt P31424); experiment: Negative allosteric modulation of rat mGluR5 expressed in CHO-K1 cells; type: cell-based
[11] = target: Adenosine receptor A2a (Homo sapiens) (UniProt P29274); experiment: Activity at adenosine A2A receptor at 10 uM
Chain of Adenosine receptor A2a (Homo sapiens) (P29274 whole entry): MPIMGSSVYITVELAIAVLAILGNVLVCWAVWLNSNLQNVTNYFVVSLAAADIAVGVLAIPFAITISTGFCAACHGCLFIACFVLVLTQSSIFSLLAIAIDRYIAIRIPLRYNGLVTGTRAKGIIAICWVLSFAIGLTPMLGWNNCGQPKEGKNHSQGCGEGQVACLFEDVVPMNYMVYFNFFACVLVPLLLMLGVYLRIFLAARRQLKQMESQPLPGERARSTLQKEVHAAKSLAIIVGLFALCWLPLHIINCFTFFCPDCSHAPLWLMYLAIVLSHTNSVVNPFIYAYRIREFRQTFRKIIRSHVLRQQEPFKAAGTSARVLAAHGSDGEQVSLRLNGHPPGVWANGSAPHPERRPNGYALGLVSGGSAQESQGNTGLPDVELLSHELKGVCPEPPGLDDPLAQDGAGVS

[12] = target: T3, 5-hydroxytryptamine receptor 1A (Homo sapiens) (UniProt P08908); experiment: Activity at 5HT1A receptor at 10 uM
T3 sequence (whole entry): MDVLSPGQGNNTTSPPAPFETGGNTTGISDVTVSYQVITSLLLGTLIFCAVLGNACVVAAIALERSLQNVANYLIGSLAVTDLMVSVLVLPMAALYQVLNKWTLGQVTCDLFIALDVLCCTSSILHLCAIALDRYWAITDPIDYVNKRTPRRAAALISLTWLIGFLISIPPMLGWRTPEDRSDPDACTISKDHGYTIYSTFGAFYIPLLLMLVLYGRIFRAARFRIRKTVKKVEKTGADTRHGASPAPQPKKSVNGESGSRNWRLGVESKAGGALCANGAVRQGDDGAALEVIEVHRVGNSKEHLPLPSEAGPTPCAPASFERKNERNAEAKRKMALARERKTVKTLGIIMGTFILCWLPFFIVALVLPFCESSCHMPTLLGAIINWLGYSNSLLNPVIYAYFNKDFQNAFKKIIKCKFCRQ

[13] = target: T4, Alpha-2A adrenergic receptor (Homo sapiens) (UniProt P08913); experiment: Activity at adrenergic alpha 2A receptor at 10 uM
T4 sequence (whole entry): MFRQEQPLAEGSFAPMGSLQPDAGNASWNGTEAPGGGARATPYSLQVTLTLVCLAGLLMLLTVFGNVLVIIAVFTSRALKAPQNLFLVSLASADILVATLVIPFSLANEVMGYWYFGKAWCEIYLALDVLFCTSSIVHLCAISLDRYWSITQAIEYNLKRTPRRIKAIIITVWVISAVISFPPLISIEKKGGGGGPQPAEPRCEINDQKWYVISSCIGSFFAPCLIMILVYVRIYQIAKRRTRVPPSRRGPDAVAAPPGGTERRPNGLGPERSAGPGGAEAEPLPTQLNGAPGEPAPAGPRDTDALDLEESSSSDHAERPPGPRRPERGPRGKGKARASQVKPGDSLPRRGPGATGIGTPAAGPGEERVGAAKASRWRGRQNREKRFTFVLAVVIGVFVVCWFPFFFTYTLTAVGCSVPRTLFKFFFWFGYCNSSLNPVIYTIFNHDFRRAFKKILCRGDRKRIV

[14] = Permeability from apical to basolateral side of human Caco-2 cells; type: ADME, cell-based; conditions: read-out: permeability
[15] = Permeability from basolateral to apical side of human Caco-2 cells; type: ADME, cell-based; conditions: read-out: permeability
[16] = Plasma protein binding in rat; type: ADME, cell-free; conditions: read-out: PPB (converted)
[17] = Metabolic stability in human microsomes; type: ADME, Microsome
[18] = Metabolic stability in rat microsomes; type: ADME, Microsome
Rattus norvegicus [19] = species: Rattus norvegicus; experiment: Hepatic blood flow in rat; type: ADME, organism-based, Liver
Homo sapiens = species: Homo sapiens; experiment: Hepatic blood flow in human; type: ADME, organism-based, Liver
[20] = Clearance in rat at 2 mg/kg, iv; type: ADME, organism-based; parameters: dose 2 mg/kg, route intravenous; conditions: in vivo
[21] = Volume of distribution in rat at 2 mg/kg, iv; type: ADME, organism-based; parameters: dose 2 mg/kg, route intravenous; conditions: in vivo
[22] = Mean residence time in rat at 2 mg/kg, iv; type: ADME, organism-based; parameters: dose 2 mg/kg, route intravenous; conditions: in vivo, read-out: Time
[23] = Oral bioavailability in rat at 30 mg/kg, po after 30 mins; type: ADME, organism-based; conditions: in vivo
[24] = Drug level in rat plasma at 30 mg/kg, po measured at 30 mins post dose; type: ADME, organism-based; parameters: dose 30 mg/kg, route oral; conditions: read-out: Drug uptake
[25] = Drug level in rat CSF at 30 mg/kg, po measured at 30 mins post dose; type: ADME, organism-based, Cerebrospinal fluid; parameters: dose 30 mg/kg, route oral; conditions: read-out: Drug uptake
Cytochrome P450 3A4 = Cytochrome P450 3A4 (Homo sapiens, UniProt P08684); experiment: Inhibition of CYP3A4 up to 50 uM; type: ADME
Cytochrome P450 2D6 = Cytochrome P450 2D6 (Homo sapiens, UniProt P10635); experiment: Inhibition of CYP2D6 up to 50 uM; type: ADME
Chain of Cytochrome P450 2D6 (P10635 whole entry): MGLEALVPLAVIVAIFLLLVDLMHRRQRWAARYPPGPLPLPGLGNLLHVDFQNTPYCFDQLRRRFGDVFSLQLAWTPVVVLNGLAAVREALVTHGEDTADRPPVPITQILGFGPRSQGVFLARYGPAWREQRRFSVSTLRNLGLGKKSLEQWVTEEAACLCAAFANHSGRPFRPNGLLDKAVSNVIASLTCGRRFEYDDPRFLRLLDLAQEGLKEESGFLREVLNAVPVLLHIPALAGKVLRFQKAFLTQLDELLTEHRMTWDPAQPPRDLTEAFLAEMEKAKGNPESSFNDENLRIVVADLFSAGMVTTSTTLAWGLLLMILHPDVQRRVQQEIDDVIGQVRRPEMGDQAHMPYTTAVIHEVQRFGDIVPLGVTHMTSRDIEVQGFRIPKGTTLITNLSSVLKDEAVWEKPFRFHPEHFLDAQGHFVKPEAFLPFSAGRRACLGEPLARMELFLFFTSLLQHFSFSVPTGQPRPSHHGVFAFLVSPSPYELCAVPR

Cytochrome P450 2C9 = Cytochrome P450 2C9 (Homo sapiens, UniProt P11712); experiment: Inhibition of CYP2C9 up to 50 uM; type: ADME
Chain of Cytochrome P450 2C9 (P11712 whole entry): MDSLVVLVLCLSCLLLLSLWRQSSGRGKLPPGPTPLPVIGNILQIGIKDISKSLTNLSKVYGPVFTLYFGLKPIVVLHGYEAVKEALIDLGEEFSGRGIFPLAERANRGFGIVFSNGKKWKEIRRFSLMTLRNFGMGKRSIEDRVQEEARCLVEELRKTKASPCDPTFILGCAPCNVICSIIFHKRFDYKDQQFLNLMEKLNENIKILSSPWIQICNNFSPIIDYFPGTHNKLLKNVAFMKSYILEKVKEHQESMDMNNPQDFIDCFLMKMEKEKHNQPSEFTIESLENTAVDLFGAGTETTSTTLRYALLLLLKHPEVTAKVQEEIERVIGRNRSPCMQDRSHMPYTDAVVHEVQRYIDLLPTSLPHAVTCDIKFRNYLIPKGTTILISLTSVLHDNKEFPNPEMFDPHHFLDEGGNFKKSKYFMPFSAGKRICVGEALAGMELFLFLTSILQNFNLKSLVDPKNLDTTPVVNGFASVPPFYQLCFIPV

Cytochrome P450 2C19 = Cytochrome P450 2C19 (Homo sapiens, UniProt P33261); experiment: Inhibition of CYP2C19 up to 50 uM; type: ADME
Chain of Cytochrome P450 2C19 (P33261 whole entry): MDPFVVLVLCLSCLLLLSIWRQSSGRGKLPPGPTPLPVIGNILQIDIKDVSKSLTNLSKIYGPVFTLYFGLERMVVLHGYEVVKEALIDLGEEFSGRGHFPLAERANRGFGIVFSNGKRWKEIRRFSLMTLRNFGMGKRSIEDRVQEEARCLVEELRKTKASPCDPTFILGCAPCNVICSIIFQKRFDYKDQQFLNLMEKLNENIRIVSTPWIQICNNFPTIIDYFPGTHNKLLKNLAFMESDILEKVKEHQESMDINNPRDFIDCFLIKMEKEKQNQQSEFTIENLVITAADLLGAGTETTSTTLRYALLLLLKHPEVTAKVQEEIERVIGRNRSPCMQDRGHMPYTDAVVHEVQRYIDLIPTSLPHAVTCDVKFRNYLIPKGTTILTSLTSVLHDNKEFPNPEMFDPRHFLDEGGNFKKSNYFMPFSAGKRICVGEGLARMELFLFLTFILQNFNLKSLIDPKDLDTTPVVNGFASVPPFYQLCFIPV

Rattus norvegicus [26] = experiment: Inhibition of haloperidol-induced catalepsy in po dosed rat administered 30 mins before haloperidol challenge; type: functional, organism-based

T1 sequence (Q14833 whole entry): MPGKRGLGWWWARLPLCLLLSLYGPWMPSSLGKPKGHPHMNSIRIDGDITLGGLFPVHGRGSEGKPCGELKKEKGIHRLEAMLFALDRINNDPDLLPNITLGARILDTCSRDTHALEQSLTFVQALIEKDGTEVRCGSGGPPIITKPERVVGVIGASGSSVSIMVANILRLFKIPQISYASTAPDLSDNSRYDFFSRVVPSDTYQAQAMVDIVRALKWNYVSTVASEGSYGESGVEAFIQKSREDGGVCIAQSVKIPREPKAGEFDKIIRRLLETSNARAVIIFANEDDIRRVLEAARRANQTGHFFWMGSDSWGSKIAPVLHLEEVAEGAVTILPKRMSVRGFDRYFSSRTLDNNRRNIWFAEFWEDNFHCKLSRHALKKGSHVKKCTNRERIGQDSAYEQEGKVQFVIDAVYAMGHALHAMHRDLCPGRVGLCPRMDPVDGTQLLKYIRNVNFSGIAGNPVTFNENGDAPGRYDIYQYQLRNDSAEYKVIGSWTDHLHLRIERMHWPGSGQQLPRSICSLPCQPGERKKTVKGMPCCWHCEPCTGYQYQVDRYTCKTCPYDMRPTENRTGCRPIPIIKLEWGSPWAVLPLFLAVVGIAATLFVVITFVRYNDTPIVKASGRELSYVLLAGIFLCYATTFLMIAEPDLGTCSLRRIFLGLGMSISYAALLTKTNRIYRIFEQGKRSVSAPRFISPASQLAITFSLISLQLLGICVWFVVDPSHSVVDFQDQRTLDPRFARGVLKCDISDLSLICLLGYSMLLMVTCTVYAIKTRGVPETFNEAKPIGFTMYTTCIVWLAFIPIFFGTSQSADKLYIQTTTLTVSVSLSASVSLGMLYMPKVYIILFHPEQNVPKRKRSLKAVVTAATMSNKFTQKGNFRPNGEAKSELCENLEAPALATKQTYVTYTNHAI

SMILES: CNc1nccc(/C=C/c2ccccc2)n1
- EC50 [1]: > 30 µM

SMILES: Cc1cc(/C=C/c2ccccc2)nc(N)n1
- EC50 [1]: 0.8 µM
- Emax [2]: 99%

SMILES: N#Cc1cccc(/C=C/c2ccnc(N)n2)c1
- EC50 [1]: > 30 µM

SMILES: Nc1cc(/C=C/c2ccccc2)nc(N)n1
- EC50 [1]: > 30 µM

SMILES: CCOC(=O)C(=O)Nc1nccc(/C=C/c2ccccc2)n1
- EC50 [1]: 5 µM
- Emax [2]: 82%

SMILES: Cc1cccc(/C=C/c2ccnc(N)n2)c1
- EC50 [1]: > 30 µM

SMILES: CN(C)c1nccc(/C=C/c2ccccc2)n1
- EC50 [1]: > 30 µM

SMILES: Nc1nccc(/C=C/c2ccccn2)n1
- EC50 [1]: 11.7 µM
- Emax [2]: 92%

SMILES: Nc1nccc(/C=C/c2ccc(F)cc2)n1
- EC50 [1]: 4.5 µM
- Emax [2]: 106%

SMILES: Cc1cnc(N)nc1/C=C/c1ccccc1
- EC50 [1]: 0.2 µM
- Emax [2]: 94%

SMILES: Nc1nccc(/C=C/c2cccc(F)c2)n1
- EC50 [1]: 4.5 µM
- Emax [2]: 99%

SMILES: Nc1cncc(/C=C/c2ccccc2)n1
- EC50 [1]: 15.8 µM
- Emax [2]: 72%

SMILES: Nc1ncc([C@@H]2C[C@H]2c2ccccc2)cn1
- EC50 [1]: > 30 µM

SMILES: Nc1nccc(-c2cc3ccccc3s2)n1
- EC50 [1]: > 30 µM

SMILES: Nc1nc(/C=C/c2ccccc2)cc(C(F)(F)F)n1
- EC50 [1]: 0.6 µM
- Emax [2]: 95%

SMILES: Nc1cccc(/C=C/c2ccccc2)n1
- EC50 [1]: 5.8 µM
- Emax [2]: 92%

SMILES: CS(=O)(=O)Nc1nccc(/C=C/c2ccccc2)n1
- EC50 [1]: > 30 µM

SMILES: Sc1nccc(/C=C/c2ccccc2)n1
- EC50 [1]: 7.8 µM
- Emax [2]: 115%

SMILES: C(=C\c1ccnc(-c2ccccc2)n1)/c1ccccc1
- EC50 [1]: > 30 µM

SMILES: Nc1ncc(Br)c(/C=C/c2ccccc2)n1
- EC50 [1]: 1.3 µM
- Emax [2]: 94%

SMILES: Nc1nccc(CCc2ccccc2)n1
- EC50 [1]: > 30 µM

SMILES: Nc1nccc(-c2cc3ccccc3o2)n1
- EC50 [1]: 4.9 µM
- Emax [2]: 58%

SMILES: Cc1nccc(/C=C/c2ccccc2)n1
- EC50 [1]: 6.9 µM
- Emax [2]: 67%

SMILES: Cc1nc(N)nc(/C=C/c2ccccc2)c1C
- EC50 [1]: 1.6 µM
- Emax [2]: 88%

SMILES: Nc1nccc(/C=C/c2ccccc2F)n1
- EC50 [1]: 2.9 µM
- Emax [2]: 101%

SMILES: Nc1nccc(/C=C/c2cccs2)n1
- EC50 [1]: 4.1 µM
- Emax [2]: 98%

SMILES: Nc1nccc(/C=C/c2ccco2)n1
- EC50 [1]: 9.4 µM
- Emax [2]: 94%

SMILES: Nc1ncc(Cl)c(/C=C/c2ccccc2)n1
- EC50 [1]: 1.6 µM
- Emax [2]: 102%

SMILES: Nc1nccc(/C=C/c2cccnc2)n1
- EC50 [1]: 16.4 µM
- Emax [2]: 55%

SMILES: Nc1nccc(/C=C/c2ccccc2)n1
- concentration at 0.5 h [3]: 33.8 µM
- Kp at 0.5 h [4]: 2.9
- EC50 [1]: 1 µM
- Emax [2]: 106%
- EC50 [5]: > 30 µM
- IC50 [6]: > 30 µM
- EC50 [7]: > 10 µM
- EC50 [8]: > 10 µM
- EC50 [9]: 1 µM
- IC50 [10]: > 10 µM
- Activity [11]: > 50%
- Activity [12]: > 50%
- Activity [13]: > 50%
- Papp A→B [14]: 41.9 ×10⁻⁶ cm/s
- Papp B→A [15]: 19.6 ×10⁻⁶ cm/s
- fraction unbound [16]: 0.1
- Stability [17]: 62%
- Stability [18]: 62%
- QH (Rattus norvegicus [19]): 83%
- QH (Homo sapiens): 83%
- clearance [20]: 75 mL/min/kg
- Vd [21]: 2.7 L/kg
- MRT [22]: 36 min
- bioavailability [23]: 51%
- concentration at 0.5 h [24]: 11.6 µM
- concentration at 0.5 h [25]: 0.7 µM
- inhibition (INH) (Cytochrome P450 3A4): Not Active
- inhibition (INH) (Cytochrome P450 2D6): Not Active
- inhibition (INH) (Cytochrome P450 2C9): Not Active
- inhibition (INH) (Cytochrome P450 2C19): Not Active
- Activity (Rattus norvegicus [26]): Dose-dependent effect
- inhibition (Rattus norvegicus [26]): Dose-dependent effect

SMILES: Cc1ccccc1/C=C/c1ccnc(N)n1
- EC50 [1]: > 30 µM

SMILES: N#Cc1ccccc1/C=C/c1ccnc(N)n1
- EC50 [1]: > 30 µM

SMILES: N#Cc1ccc(/C=C/c2ccnc(N)n2)cc1
- EC50 [1]: > 30 µM

SMILES: Nc1nc(O)cc(/C=C/c2ccccc2)n1
- EC50 [1]: > 30 µM

SMILES: COc1cc(/C=C/c2ccccc2)nc(N)n1
- EC50 [1]: 2 µM
- Emax [2]: 106%

SMILES: Nc1nccc(/C=C/c2ccncc2)n1
- EC50 [1]: > 30 µM

SMILES: Nc1nccc(-c2ccc3ccccc3c2)n1
- EC50 [1]: > 30 µM

SMILES: Nc1nccc(C#Cc2ccccc2)n1
- EC50 [1]: 20 µM
- Emax [2]: 86%

SMILES: Cc1ccc(/C=C/c2ccnc(N)n2)cc1
- EC50 [1]: > 30 µM
